Drawing on PubChem BioAssay AID1963958 (Molecular Pharmacology Branch, DTP, NCI, 2024), this text covers viability, T/C and IC50 for 6 compounds.

Where “and” joins values, the source holds several entries; their conditions need not be identical. Identical values can stand only once. Bounds are passed on as bounds.

This assay deals with MDA-MB-231 multicell spheroids, viability. Briefly: Anticancer human tumor MDA-MB-231 cell line growth inhibition [PI3K].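 For all read-outs here: spheroids exposed to agents for seven days before reading.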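 For viability, T/C: percent of vehicle control luminescence with DMSO treated spheroids as 100%.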 The conditions noted are these: for viability, T/C: stronger effect = lower value. An excerpt: Combinatorial screen of targeted agents with the PI3K inhibitors inavolisib, alpelisib, duvelisib, and copanlisib in multi-cell type tumor spheroids
A high-throughput screen of multi-cell type tumor spheroids was designed to identify active combinations of targeted small molecules and PI3K pathway inhibitors. Complex spheroids include a stromal component modeled by human endothelial cells (HUVEC) and fibroblasts modeled by human mesenchymal stem cells (MSCs). The concentration ranges selected for each drug and investigational agent were based upon clinically achievable concentrations if the clinical Cmax of the agent was known.
Compounds. The drugs and investigational agents: inavolisib (NSC800729), alpelisib (NSC765974), duvelisib (NSC772469), copanlisib (NSC816437), ipatasertib (NSC767898), afuresertib (NSC778305), talazoparib (NSC767125), sapanisertib (NSC764658), selumetinib (NSC741078), tovorafenib (DAY101, NSC766906), vemurafenib (NSC761431), ravoxertinib (NSC781343), sotorasib (NSC818433), MRTX1133 (NSC 836407), abemaciclib (NSC 768073), palbociclib (NSC758247), venetoclax (NSC 766270), SY5609 (NSC837396), enzalutamide (NSC755605), and darolutamide (NSC825331), were obtained from the National Cancer Institute (NCI) Developmental Therapeutics Program Chemical Repository. The FDA-approved anticancer drug set is available from the NCI Developmental Therapeutics Program. […] The stock solutions were prepared in dimethyl sulfoxide (DMSO, Sigma-Aldrich, St. Louis, MO, cat. D2650) at 800-fold the tested concentration and stored at -70 degrees C prior to their use. All drugs and investigational agents were tested over a range starting from a high concentration at or near the clinical Cmax and decreasing in half-log increments. If the clinical Cmax for an agent had not been determined, the highest concentration tested was 10 microM.
Cell Culture. All cells were maintained in an incubator at 37 degrees C and 5% CO2 with 95% humidity. The PDC lines were cultured according to standard operating procedures established by the NCI PDMR (https://pdmr.cancer.gov/sops/default.htm). All PDCs were thawed and cultured in Matrigel-coated flasks prepared with a working solution of 1X Ham's F-12 nutrient mix, without supplementation (Invitrogen, Waltham, MA, cat. 11765054), 100 U/mL penicillin-streptomycin (Invitrogen, cat. 15140122), and 2.5% Matrigel (Corning Inc., Corning, NY, cat. 354248) for the first three passages. The 354836-022-R-J1-PDC, 475296-252-R-J1-PDC, and 997726-040-R-J2-PDC lines were cultured in 6A media, which includes advanced DMEM/F-12 (Thermo Fisher Scientific, cat. 12634028), 10 mM HEPES (Thermo Fisher Scientific, cat. 15630080), 1X GlutaMAX supplement (Thermo Fisher Scientific, cat. 35050061), 0.1 mg/mL primocin (InvivoGen, San Diego, CA, cat. ant-pm-2), 10% defined fetal bovine serum, heat inactivated (HyClone Laboratories Inc., Logan, UT, cat. SH30070.03HI), 50% L-WRN conditioned media (ATCC, cat. CRL-3276), 1.25 mM N-Acetyl-L-cysteine (Sigma-Aldrich, cat. A9165), 10 mM nicotinamide (Sigma-Aldrich, cat. N0636), 1X B-27 supplement (Thermo Fisher Scientific, cat. 17504044), 1X N-2 supplement (Thermo Fisher Scientific, cat. 17502048), and 10 microM Y-27632 dihydrochloride (Tocris Bioscience, Bristol, United Kingdom, cat. 1254). The 624824-186-R-J2-PDC line was cultured in 6C/Colon 1B media, which includes all 6A media components plus 50 ng/mL human EGF recombinant protein (Thermo Fisher Scientific, cat. PHG0311). […]

For orientation: viability, T/C means the result in the treated group divided by that in the control group, in per cent. In general, IC50 refers to the midpoint of a concentration-inhibition curve. For `C#Cc1c(F)ccc2cc(O)cc(-c3ncc4c(N5CC6CCC(C5)N6)nc(OCC56CCCN5CC(F)C6)nc4c3F)c12` (stereo not given), the viability, T/C is 110% [middle of 4 runs] (compound 0.0316 µM); 104% [middle of 4 runs] (compound 0.1 µM); 100% [middle of 4 runs] (compound 0.316 µM); 98.5% [middle of 4 runs] (compound 1 µM); 59.5% [middle of 4 runs] (compound 10 µM). For the same compound, under “curve of compound”, the IC50 is over 10000 nM.

On to `C=CC(=O)N1CCN(c2nc(=O)n(-c3c(C)ccnc3C(C)C)c3nc(-c4c(O)cccc4F)c(F)cc23)C(C)C1` (stereo not given), for which the viability, T/C (compound 0.0316 µM) was 109% [middle of 4 runs]; the viability, T/C (compound 0.1 µM) was 101% [middle of 4 runs]; the viability, T/C (compound 0.316 µM) is 124% [middle of 4 runs]; the viability, T/C (compound 3.16 µM) was 136% [middle of 4 runs]; the viability, T/C (compound 10 µM) was 127% [middle of 4 runs]. Also, for the setting “curve of compound”, the half-inhibitory concentration (IC50) was over 10000 nM.

Consider `CC1(C)CCC(Nc2ncc(C(F)(F)F)c(-c3c[nH]c4c(P(C)(C)=O)c(C#N)ccc34)n2)CN1` (stereo not given), for which the viability, T/C is 44.8% [middle of 4 runs] (compound 0.0316 µM); 42.5% [middle of 4 runs] (compound 0.1 µM); 44.1% [middle of 4 runs] (compound 0.316 µM); 54.3% [middle of 4 runs] (compound 1 µM); 56.4% [middle of 4 runs] (compound 3.16 µM); 5.5% [middle of 4 runs] (compound 10 µM). Besides, under “curve of compound”, the half-maximal inhibitory concentration (IC50) is 31.6 nM and 56.2 nM.

With `Cn1ncc(Cl)c1-c1cc(C(=O)NC(CN)Cc2cccc(F)c2)sc1Cl` (stereo not given), the viability, T/C by setting is: (compound 0.0316 µM) 111% [middle of 4 runs]; (compound 0.1 µM) 99.8% [middle of 4 runs]; (compound 0.316 µM) 95.8% [middle of 4 runs]; (compound 1 µM) 77.2% [middle of 4 runs]; (compound 3.16 µM) 52.5% [middle of 4 runs]; (compound 10 µM) 28.8% [middle of 4 runs]. The concentration for half-maximal inhibition (IC50) (curve of compound) is 3.47 µM [middle of 4 runs].

For the compound `Cn1nccc1Nc1nccc(-c2ccn(C(CO)c3ccc(Cl)c(F)c3)c(=O)c2)n1` (stereo not given), the viability, T/C by setting is: (compound 0.0316 µM) 87% [middle of 4 runs]; (compound 0.1 µM) 70.7% [middle of 4 runs]; (compound 0.316 µM) 61.5% [middle of 4 runs]; (compound 1 µM) 50.8% and 49.5% and 49.4% (2×); (compound 3.16 µM) 41.8% [middle of 4 runs]; (compound 10 µM) 30.1% [middle of 4 runs]. The IC50 (curve of compound) was 905 nM [middle of 4 runs].

As for `Cn1cnc2c(F)c(Nc3ccc(Br)cc3Cl)c(C(=O)NOCCO)cc21` + CC(Nc1ccc2c(c1)OCCn1cc(N3C(=O)OCC3C(F)F)nc1-2)C(N)=O, the half-inhibitory concentration (IC50) runs as follows: (curve of first compound, second compound 0.00316 µM) 674 nM; (curve of first compound, second compound 0.01 µM) 1100 nM; (curve of first compound, second compound 0.0316 µM) 34.1 nM; (curve of first compound, second compound 0.1 µM) under 9.49 nM; (curve of first compound, second compound 0.316 µM) under 9.49 nM; (curve of first compound, second compound 1 µM) under 9.49 nM. Further, the viability, T/C (second compound 0.00316 µM, first compound 0.00949 µM) is 67.7%; the viability, T/C (second compound 0.00316 µM, first compound 0.03 µM) was 60%; the viability, T/C (second compound 0.00316 µM, first compound 0.0949 µM) was 58.2%; the viability, T/C (second compound 0.00316 µM, first compound 0.3 µM) was 56.2%; the viability, T/C (second compound 0.00316 µM, first compound 0.949 µM) was 49.4%; the viability, T/C (second compound 0.00316 µM, first compound 3 µM) was 32%. In addition, the viability, T/C by setting is: (second compound 0.01 µM, first compound 0.00949 µM) 56.8%; (second compound 0.01 µM, first compound 0.03 µM) 56.2%; (second compound 0.01 µM, first compound 0.0949 µM) 54.3%; (second compound 0.01 µM, first compound 0.3 µM) 53.9%; (second compound 0.01 µM, first compound 0.949 µM) 53%; (second compound 0.01 µM, first compound 3 µM) 30.8%. Also, the viability, T/C runs as follows: (second compound 0.0316 µM, first compound 0.00949 µM) 56.1%; (second compound 0.0316 µM, first compound 0.03 µM) 48.1%; (second compound 0.0316 µM, first compound 0.0949 µM) 46.1%; (second compound 0.0316 µM, first compound 0.3 µM) 44.8%; (second compound 0.0316 µM, first compound 0.949 µM) 43.2%; (second compound 0.0316 µM, first compound 3 µM) 23%. Further, the viability, T/C (second compound 0.1 µM, first compound 0.00949 µM) is 50.9%; the viability, T/C (second compound 0.1 µM, first compound 0.03 µM) is 41.7%; the viability, T/C (second compound 0.1 µM, first compound 0.0949 µM) is 44%; the viability, T/C (second compound 0.1 µM, first compound 0.3 µM) is 42.1%; the viability, T/C (second compound 0.1 µM, first compound 0.949 µM) was 36.3%; the viability, T/C (second compound 0.1 µM, first compound 3 µM) is 16.7%. For the same compound, the viability, T/C (second compound 0.316 µM, first compound 0.00949 µM) was 42.5%; the viability, T/C (second compound 0.316 µM, first compound 0.03 µM) is 42%; the viability, T/C (second compound 0.316 µM, first compound 0.0949 µM) is 40.5%; the viability, T/C (second compound 0.316 µM, first compound 0.3 µM) was 39.8%; the viability, T/C (second compound 0.316 µM, first compound 0.949 µM) is 33.4%; the viability, T/C (second compound 0.316 µM, first compound 3 µM) is 15.4%. The viability, T/C was 41.1% (second compound 1 µM, first compound 0.00949 µM); 35.1% (second compound 1 µM, first compound 0.03 µM); 38.4% (second compound 1 µM, first compound 0.0949 µM); 37.7% (second compound 1 µM, first compound 0.3 µM); 33.9% (second compound 1 µM, first compound 0.949 µM); 15.3% (second compound 1 µM, first compound 3 µM).
